Test system: cord blood derived CD34+ cells
Assay: Ex vivo culture of cord blood derived CD34+ cells, graft composition by flow
Assay type: cell-based, human
Settings: expanded cord blood; UM171 35 nM, SR1 500 nM

| Compound | dendritic cells population (CD86+CD34+) share of the graft |
| --- | --- |
| CC(C)n1cnc2c(NCCc3ccc(O)cc3)nc(-c3csc4ccccc34)nc21 [SR1] | less than 5% |

Test system: CD34 + CD45RA- cells
Assay: Expansion of CD34+CD45RA- cells compared to DMSO (EC50)
Assay type: cell-based
Settings: concentration of compound necessary to expand 50% more of CD34+CD45RA- cells as compared to cells treated with DMSO

| EC50 | Compound |
| --- | --- |
| 0.114 µM | COC(=O)c1ccc2c(c1)[nH]c1cc(Cc3ccsc3)nc(N[C@H]3CC[C@H](N)CC3)c12 [Compound 39] |
| 0.079 µM | COC(=O)c1ccc2c(c1)[nH]c1nc(Cc3ccccc3)nc(NCCC#N)c12 [Compound 58] |
| 0.059 µM | COC(=O)c1ccc2c(c1)[nH]c1nc(Cc3ccccc3)nc(NCC(O)CO)c12 (centres unmarked) [Compound 44] |
| 0.154 µM | CCOC(=O)c1ccc2c(c1)[nH]c1nc(Cc3ccccc3)nc(NCCCN3CCCCC3)c12 [Compound 5] |
| 0.263 µM | CNS(=O)(=O)c1cccc(Nc2ncnc3[nH]c4cc(C(=O)OC)ccc4c23)c1 [Compound 43] |
| 0.067 µM | COC(=O)c1ccc2c(c1)[nH]c1nc(C(C)c3ccccc3)nc(NCCCN3CCCCC3)c12 (centres unmarked) [Compound 18] |
| 0.024 µM | C#CCOC(CNc1nc(Cc2ccccc2)nc2[nH]c3cc(C(=O)OC)ccc3c12)CN1CCCCC1 (centres unmarked) [Compound 9] |
| 0.104 µM | C#Cc1cccc(Cc2nc(NCCN(C)CCN)c3c(n2)[nH]c2cc(-c4nnn(C)n4)ccc23)c1 [Compound 32] |
| 0.002 µM | COC(=O)c1ccc2c(c1)[nH]c1nc(Cc3ccccc3)nc(NCCCCCN(C)C)c12 [Compound 40] |
| 0.051 µM | CN(CCCN)CCCNc1nc(Cc2ccccc2Br)nc2[nH]c3cc(-c4nnn(C)n4)ccc3c12 [Compound 24] |
| 0.019 µM | COC(=O)c1ccc2c(c1)[nH]c1nc(Cc3ccccc3)nc(NCCCN(C)CCCNc3ncnc4[nH]c5ccccc5c34)c12 [Compound 21] |
| 0.117 µM | COC(=O)c1ccc2c(c1)[nH]c1nc(CCc3ccccc3)nc(NCCCN(C)CC(O)C[N+](C)(C)C)c12 (centres unmarked) [Compound 53] |
| 0.016 µM | COC(=O)c1ccc2c(c1)[nH]c1nc(Cc3cccc(C(O)C(F)(F)F)c3)nc(NCCCN3CCCCC3)c12 (centres unmarked) [Compound 6] |
| 0.079 µM | COC(=O)c1ccc2c(c1)[nH]c1nc(Cc3ccccc3)nc(NCC3CCCN(C(=O)OC)C3)c12 (centres unmarked) [Compound 55] |
| 0.113 µM | COC(=O)c1ccc2c(c1)[nH]c1nc(Cc3cccc(CC(=O)O)c3)nc(NCCCN(C)CCCN)c12 [Compound 20] |
| 0.02 µM | COC(=O)c1ccc2c(c1)[nH]c1nc(Cc3cccc(F)c3)nc(NCCCN3CCCCC3)c12 [Compound 2] |
| 0.038 µM | COC(=O)c1ccc2c(c1)[nH]c1nc(Cc3cccc(C)c3)nc(NCCCN3CCCCC3)c12 [Compound 1] |
| 0.327 µM | COC(=O)c1ccc2c(c1)[nH]c1nc(Cc3ccccc3)nc(SCCCN3CCCCC3)c12 [Compound 15] |
| 0.048 µM | COC(=O)c1ccc2c(c1)[nH]c1nc(Cc3ccccc3)nc(NCc3cnc(C)cn3)c12 [Compound 56] |
| 0.044 µM | COC(=O)c1ccc2c(c1)[nH]c1cc(Cc3cccc(O)c3)nc(NCCCCN3CCCC3)c12 [Compound 35] |
| 0.007 µM | COC(=O)c1ccc2c(c1)[nH]c1nc(Cc3ccccc3)nc(NCC3CCCNC3)c12 (centres unmarked) [Compound 52] |

| EC50 | Compound |
| --- | --- |
| 0.141 µM | Cn1nnc(-c2ccc3c(c2)[nH]c2nc(Cc4ccccc4)nc(NCCOCCO)c23)n1 [Compound 46] |
| 0.004 µM | COC(=O)c1ccc2c(c1)[nH]c1nc(C(O)c3ccccc3)nc(NCCCN3CCCCC3)c12 (centres unmarked) [Compound 14] |
| 0.484 µM | CN(CCC[N+](C)(C)C)c1nc(Cc2ccccc2)nc2[nH]c3cc(-c4nnn(C)n4)ccc3c12 [Compound 26] |
| 0.249 µM | CN(CCCNC(=O)COCCOCCN)CCCNc1nc(Cc2ccccc2)nc2[nH]c3cc(-c4nnn(C)n4)ccc3c12 [Compound 23] |
| 0.041 µM | COC(=O)c1ccc2c(c1)[nH]c1nc(Cc3ccccc3)nc(NCCCN3C(=O)CCC3=O)c12 [Compound 49] |
| 0.036 µM | Cn1nnc(-c2ccc3c(c2)[nH]c2ncnc(NCCCCN4CCCCC4)c23)n1 [Compound 29] |
| 0.014 µM | COC(=O)c1ccc2c(c1)[nH]c1nc(Cc3cccnc3)nc(NCCCN3CCCCC3)c12 [Compound 4] |
| 0.026 µM | COC(=O)c1ccc2c(c1)[nH]c1nc(Cc3ccccc3)nc(NCCCO)c12 [Compound 47] |
| 0.1 µM | CN1CCN(c2ccc(CNc3nc(Cc4ccccc4)nc4[nH]c5cc(-c6nnn(C)n6)ccc5c34)cc2)CC1 [Compound 22] |
| 0.704 µM | COC(=O)c1ccc2c(c1)[nH]c1cc(Cc3cccnc3)cc(NCCCN3CCOCC3)c12 [Compound 38] |
| 0.0101 µM | COC(=O)c1ccc2c(c1)[nH]c1nc(Cc3ccccc3)nc(NCCN(C(C)C)C(C)C)c12 [Compound 61] |
| 0.012 µM | COC(=O)c1ccc2c(c1)[nH]c1nc(Cc3ccccc3)nc(NCCN3CCOCC3)c12 [Compound 42] |
| 0.067 µM | COC(=O)c1ccc2c(c1)[nH]c1nc(Cc3ccccc3)nc(NCCS(N)(=O)=O)c12 [Compound 50] |
| 0.394 µM | CCN(CC)CCN(CC)c1nc(Cc2ccccc2)nc2[nH]c3cc(C(=O)OC)cnc3c12 [Compound 31] |
| 0.039 µM | COC(=O)c1ccc2c(c1)[nH]c1nc(Cc3ccccc3)nc(NCCCCCCCCN)c12 [Compound 41] |
| 0.061 µM | COC(=O)c1ccc2c(c1)[nH]c1nc(Cc3ccccc3)nc(NCCCN(C)CCCNC(=N)N)c12 [Compound 48] |
| 0.068 µM | [H]/N=C(/N)NCCNc1nc(Cc2ccccc2)nc2[nH]c3cc(C(=O)OC)ccc3c12 [Compound 36] |
| 0.031 µM | COC(=O)c1ccc2c(c1)[nH]c1nc(Cc3cccc(C(=O)C(F)(F)F)c3)nc(NCCCN3CCCCC3)c12 [Compound 7] |
| 0.008 µM | COC(=O)c1ccc2c(c1)[nH]c1nc(Cc3cccs3)nc(NCCCN3CCCCC3)c12 [Compound 3] |
| 0.005 µM | COC(=O)c1ccc2c(c1)[nH]c1nc(C(=O)c3ccccc3)nc(SCCCN3CCCCC3)c12 [Compound 16] |
| 0.101 µM | COC(=O)c1ccc2c(c1)[nH]c1nc(Cc3ccccc3)nc(NCCCN(C)CC(O)COCc3ccccc3)c12 (centres unmarked) [Compound 11] |

| EC50 | Compound |
| --- | --- |
| 0.135 µM | CNCCCNc1ncnc2[nH]c3cc(-c4nnn(C)n4)ccc3c12 [Compound 30] |
| 0.075 µM | COC(=O)c1ccc2c(c1)[nH]c1nc(Cc3ccccc3)nc(NCCNC3=NCCC3)c12 [Compound 59] |
| 0.015 µM | COC(=O)c1ccc2c(c1)[nH]c1nc(Cc3ccccc3)nc(CCCCN3CCCCC3)c12 [Compound 17] |
| 0.0048 µM | CCNCCNc1nc(Cc2ccccc2)nc2[nH]c3cc(C(=O)OC)ccc3c12 [Compound 57] |
| 0.277 µM | Cn1nnc(-c2ccc3c(c2)[nH]c2ncnc(NCCCN4CCC(O)CC4)c23)n1 [Compound 28] |
| 0.023 µM | COC(=O)c1ccc2c(c1)[nH]c1nc(Cc3ccccc3)nc(NNc3ccc(S(C)(=O)=O)cc3)c12 [Compound 60] |
| 0.062 µM | CNS(=O)(=O)c1ccc(CNc2nc(Cc3ccccc3)nc3[nH]c4cc(C(=O)OC)ccc4c23)cc1 [Compound 51] |
| 0.15 µM | COC(=O)c1ccc2c(c1)[nH]c1nc(Cc3ccc4ccccc4c3)nc(NCCCN3CCCCC3)c12 [Compound 8] |
| 0.367 µM | Cn1nnc(-c2cnc3c(c2)[nH]c2nc(Cc4ccccc4)nc(N[C@H]4CC[C@H](N)CC4)c23)n1 [Compound 27] |
| 0.118 µM | COC(=O)c1ccc2c(c1)[nH]c1nc(Cc3ccccc3)nc(NCCCCO)c12 [Compound 54] |
| 0.115 µM | CN(CCCN)CCCNc1nc(Cc2cccc(Br)c2)nc2[nH]c3cc(-c4nnn(C)n4)ccc3c12 [Compound 25] |
| 0.068 µM | COC(=O)c1ccc2c(c1)[nH]c1nc(C(OC)c3ccccc3)nc(NCCCN3CCCCC3)c12 (centres unmarked) [Compound 13] |
| 0.336 µM | COC(=O)c1ccc2c(c1)[nH]c1nc(Cc3ccccc3)nc(NCCN(C)CC(F)F)c12 [Compound 45] |
| 0.083 µM | COC(=O)c1ccc2c(c1)[nH]c1nc(Cc3ccccc3)nc(NCCN(C)C(C)=O)c12 [Compound 37] |
| 0.033 µM | COC(=O)c1ccc2c(c1)[nH]c1nc(Cc3ccccc3)nc(NCCNS(C)(=O)=O)c12 [Compound 33] |
| 0.038 µM | COC(=O)c1ccc2c(c1)[nH]c1nc(Cc3cccc(CO)c3)nc(NCCCN(C)CCCN)c12 [Compound 19] |
| 0.076 µM | COC(=O)c1ccc2c(c1)[nH]c1cc(Cc3cccc(OC)c3)nc(NCCCCN3CCCC3)c12 [Compound 34] |
| 0.007 µM | COC(=O)c1ccc2c(c1)[nH]c1nc(Cc3ccccc3)nc(NCC(O)CN3CCCCC3)c12 (centres unmarked) [Compound 10] |
| 2.44 µM | CNC(=O)c1ccc2c(c1)[nH]c1nc(Cc3ccccc3)nc(NCCCN3CCCCC3)c12 [Compound 12] |

From patent publication US12011460B2, “Expansion of NK and DC cells in vivo mediating immune response” (UNIVERSITE DE MONTREAL, priority 2018, dated 2024)
